Experimental data reported in US6588142B2, “Method of protecting plants from cold injury” (North Carolina State University, priority 2000, dated 2003).

Key:
peanut [1] = assay: peanut field study, frost injury rating; type: in vivo; conditions: for Frost Injury, Pr > |T|: frost 66 days after last spray
From the text: (§1) A peanut field was fumigated on April 28 with Metam sodium to control Cylindrocladium. The test plants were planted on May 22 with 16 different varieties of seed (Andru 93; Georgia Green; Tam Run 98; AT120; Southern Runner; Georgia Gold; Georgia Runner; 6K7WIDLEIL; FLA97R; FLAMDR98; FLA84x9B; NC7; VA93B; Perry; VA92R; VA98R), with a two-row planter. Temik and rhizobium were applied in furrow at standard rates. The spray date for the first treatment was July 20; the spray date for the second treatment was August 19. A tractor-mounted sprayer was used for all treatment sprays, with three hollow-cone nozzles per row at 40 psi, and 15 gal water/acre, at a height to cover the entire plant. Only the two treatment rows were sprayed. There were two unsprayed border rows between each treatment, to minimize interplot interference, and to assure even distribution of disease across plots. Herbicides, insecticides, and early leafspot control were applied according to standard practices across the field. Particular treatments were as follows:
(§2) (2) 15.22 fl. oz. Omega 500™ fluazinam 500F/acre (per spray)
(§3) (3) 30.44 fl. oz. Omega 500™ fluazinam 500F/acre (per spray)
(§4) (4) 60.88 fl. oz. Omega 500™ fluazinam 500F/acre (per spray)
(§5) (5) 32.0 fl. oz. Rovral™ brand iprodione+7.68 fl. oz. Nufilm™ adjuvant per acre (per spray)
Frost occurred on October 25. Frost ratings were done on November 2d. Rating Index: 1<5% green leaves, 4>50% green leaves; values between 1 and 4 were scaled from 5 to 50%. Stems were not rated, and varied from completely brown, to black, to bright green. When rating percentage of green leaves in a plot, those obviously dead from disease were ignored, and the rating was based on the remaining leaves.
(§6) Data: Statistics were run using the SAS System using the General Linear Models Procedure.

Sclerotinia blight = assay: peanut field study, disease incidence; type: in vivo
From the text: as §1, §2, §3, §4, §5, §6

peanut [2] = assay: peanut field study, yield per acre; type: in vivo
From the text: as §1, §2, §3, §4, §5
Peanuts were dug on November 10, and harvested on November 15. Moisture samples were taken from untreated plots of each variety. Yields were adjusted to 9% moisture.
as §6

[3] = pH 7; cited from earlier work
[4] = treatment effect on various peanut cultivars

O=[N+]([O-])c1cc(C(F)(F)F)c(Cl)c([N+](=O)[O-])c1Nc1ncc(C(F)(F)F)cc1Cl [fluazinam]
Frost Injury, Pr > |T| (peanut [1]; High Rate vs Control): 0.0001 | Frost Injury, Pr > |T| (peanut [1]; High Rate vs Rovral): 0.0001 | frost protection (peanut [1]; high rate, compared to both Untreated Control and Rovral): statistically significantly better frost protection | frost injury (peanut [1]; [4]): significantly reduced | Disease Incidence, Pr > |T| (Sclerotinia blight; High Rate vs Control): 0.0001 | Disease Incidence, Pr > |T| (Sclerotinia blight; High Rate vs Rovral): 0.3911 | disease control (Sclerotinia blight; High Rate vs Rovral): not significantly better | disease control (Sclerotinia blight; high rate, vs Untreated Control): statistically significantly better disease control | Sclerotinia blight (Sclerotinia blight; [4]): significantly reduced | Yield/Acre, Pr > |T| (peanut [2]; High Rate vs Control): 0.0001 | Yield/Acre, Pr > |T| (peanut [2]; High Rate vs Rovral): 0.0001 | yields (peanut [2]; high rate, vs both Untreated Control and Rovral): statistically significantly higher | yields (peanut [2]; treatment effect): significantly higher | water solubility [3]: 0.071 ppm
